Assay results as given in publication PMC6994103 (PLoS Neglected Tropical Diseases, 2020).

Tests used:
[1] = test system: VERO cells; assay: Toxicity assay in VERO cells (gentian violet staining); assay type: cell-based, African green monkey; conditions: IC50 in VERO cells / IC50 in trypomastigotes (Y strain)
Method: VERO cells (African green monkey Kidney, ATCC CCL-81) were cultured in MEM medium supplemented with 10% heat inactivated FCS, 0.15% (w/v) NaHCO3, 100 U/mL penicillin and 100 U/mL streptomycin at 37°C in 5% CO2.
The toxicity of the compounds was determined in VERO cells by the gentian violet staining assay. Briefly, the cells (1 x10^4 cells/well) were incubated in 96-well plates with the indicated compound or dimethyl sulfoxide (DMSO) as negative control and maintained at 37° C for 24 h. Then the cells were fixed for 15 min, and stained with 0.5% gentian violet. The absorbance was measured at 570 nm. The selectivity index (SI) was calculated for each CV analogue as the ratio between the IC50 obtained in mammalian cells and the IC50 in trypomastigotes. For the combined treatment, the results were presented as percentage of untreated cells.

[2] = test system: proline transporter TcAAAP069; assay: Proline transport assay in wild type (TcWT) epimastigotes; assay type: cell-based, Trypanosoma cruzi; conditions: for proline transport inhibition at 25 μM and 100 μM: TcWT epimastigotes, preliminary
Method: (§1) Aliquots of epimastigote cultures (10^7 parasites) were centrifuged at 8,000 xg for 30 s, and washed once with PBS. […] Following incubation at 28°C, reaction was stopped by adding 1 mL of ice-cold PBS. Cells were centrifuged as indicated above, and washed twice with ice-cold PBS. Cell pellets were resuspended in 0.2 mL of water and counted for radioactivity in UltimaGold XR liquid scintillation cocktail (Packard Instrument Co., Meridien CT, USA). Cell viability was assessed by direct microscopic examination and viability assays by using “Cell Titer 96 Aqueous One Solution Cell Proliferation Assay (MTS)” (Promega, Madison, WI, USA) according to the manufacturer instructions. […] Non-specific uptake and carry over were assayed without incubation (T0), or incubated at 4°C. […] As a control, regular PBS buffer was used.

[3] = test system: proline transporter TcAAAP069; assay: Proline transport assay in TcAAAP069 overexpressing (Tc069) epimastigotes; assay type: cell-based, Trypanosoma cruzi; conditions: Tc069 vs TcWT
Method: as §1

[4] = test system: T. cruzi Tc069 epimastigotes Y strain; assay: Trypanocidal activity in TcAAAP069 overexpressing (Tc069) epimastigotes; assay type: cell-based, Trypanosoma cruzi; conditions: Tc069 vs TcWT
Method: (§2) Epimastigotes of T. cruzi were cultured as described above, in 24-wells plate at a start density of 0.5 x10^7 cells/mL in BHT medium. Parasites´ growth was evaluated at different concentrations of BZL, CV and CV structural analogues, and parasite proliferation was determined after 48 h. Trypanocidal activity in trypomastigotes and amastigotes was performed using 1 x10^6 cells/mL in 96-well plates and incubating at 37°C for 24 h in the presence of the corresponding drug. Growth was determined by counting in a Neubauer chamber and viability assays by using “Cell Titer 96 Aqueous One Solution Cell Proliferation Assay (MTS)” (Promega, Madison, WI, USA) according to the manufacturer’s instructions. Amastigotes were fixed with methanol, stained and mounted with Vectashield with DAPI (Vector Laboratories, Burlingame, CA, USA), and then the non-lysed cells were counted by using fluorescence microscopy.

[5] = test system: T. cruzi epimastigotes Dm28c strain; assay: Trypanocidal activity in epimastigotes, Dm28c strain; assay type: cell-based, Trypanosoma cruzi; conditions: Dm28c vs Y
Method: (§3) VERO cells (5 x10^4 per well) were infected with trypomastigotes (2.5 ×10^5 per well) for 4 h. After this period, the infected cells were washed twice with phosphate-buffered saline (PBS), the MEM medium was replaced, and the cells were kept in culture at 37°C, 5% CO2. In order to obtain intracellular amastigotes, the cells were lysed 4 days after infection using a cell scraper, collected, washed twice with PBS (or MEM) and counted using a hemocytometer. Trypomastigotes were obtained from infected VERO cells as previously described.
as §2

[6] = test system: T. cruzi epimastigotes CL Brener strain; assay: Trypanocidal activity in epimastigotes, CL Brener strain; assay type: cell-based, Trypanosoma cruzi; conditions: CL Brener vs Y
Method: as §3
Epimastigotes of T. cruzi were cultured as described above, in 24-wells plate at a start density of 0.5 x10^7 cells/mL in BHT medium. Parasites´ growth was evaluated at different concentrations of BZL, CV and CV structural analogues, and parasite proliferation was determined after 48 h. […] Growth was determined by counting in a Neubauer chamber and viability assays by using “Cell Titer 96 Aqueous One Solution Cell Proliferation Assay (MTS)” (Promega, Madison, WI, USA) according to the manufacturer’s instructions. Amastigotes were fixed with methanol, stained and mounted with Vectashield with DAPI (Vector Laboratories, Burlingame, CA, USA), and then the non-lysed cells were counted by using fluorescence microscopy.

CC(C)/N=c1\cc2n(-c3ccc(Cl)cc3)c3ccccc3nc-2cc1Nc1ccc(Cl)cc1 [Clofazimine]
Selectivity Index [1]: 36.1

CN(C)c1ccc(C(=C2C=CC(=[N+](C)C)C=C2)c2ccc(N(C)C)cc2)cc1 [Crystal Violet]
effect on pH dependency of proline transport ([2]; CV 10 μM, citrate buffer pH 5.0-6.5): did not alter the pH dependency
proline transport inhibition in the absence of Na+ or K+ cations ([2]; CV 10 μM, modified PBS vs regular PBS): No differences were observed
mechanism of inhibition of proline transport ([2]; TcWT, listed as CV): reversible competitive mechanism of inhibition
fold increase of proline transport IC50 in Tc069 vs control parasites [3]: 2.5 fold
fold reduction of trypanocidal IC50 in Tc069 vs wild type [4]: 47 fold
fold lower IC50 in Dm28c than in Y epimastigotes [5]: 31.8 fold
fold lower IC50 in CL Brener than in Y epimastigotes [6]: 4.0 fold

Nc1ccc(S(=O)(=O)c2ccc(N)cc2)cc1 [Dapsone]
proline transport inhibition at 25 μM and 100 μM [2]: did not inhibit the proline transport in any concentration assayed

Cc1cc2c(s1)Nc1ccccc1N=C2N1CCN(C)CC1 [Olanzapine]
proline transport inhibition at 25 μM and 100 μM [2]: only inhibited proline transport at 100 μM
concentration producing death of parasites in the lapse time of the transport assay ([2]; epimastigotes): over 300 μM
